Reference: patent US6258790A, “Antisense modulation of integrin α4 expression” (Isis Pharmaceuticals, Inc., priority 1999, dated 2001)

Test system: human integrin α4
Assay: Inhibition of human integrin α4 protein levels by antisense oligonucleotides (LIPOFECTIN, flow cytometry with CD49d-FITC) in A375 melanoma cells
Type: cell-based
Set-up: % Inhib.: tested at 200 nM
Settings: for % Control (integrin α4 protein) / % Inhib (integrin α4 protein): Table 1, 200 nM oligonucleotide, 6 ug/ml LIPOFECTIN; for inhibition (Example 11): Example 11 assay, dose not stated; for % CONTROL 48 hr / % INHIB 48 hr / % CONTROL 72 hr / % INHIB 72 HR: Table 2, A375
From the text: Integrin α4 protein levels can be quantitated in a variety of ways well known in the art, such as immunoprecipitation, Western blot analysis (immunoblotting), ELISA or fluorescence-activated cell sorting (FACS). Antibodies directed to integrin α4 can be identified and obtained from a variety of sources, such as the MSRS catalog of antibodies (Aerie Corporation, Birmingham, Mich.), or can be prepared via conventional antibody generation methods.
Target sites are indicated by nucleotide numbers, as given in the sequence source reference (GenBank accession no. L12002), to which the oligonucleotide binds. All compounds in Table 1 are 18 nucleotides in length, with a phosphorothioate backbone and a centered 10-base deoxynucleotide gap flanked by 2'-methoxyethoxy (2'MOE) wings. Human A375 melanoma cells (American Type Culture Collection, Manassas, Va.) were plated at 2000 cells/cm^2 two days before oligonucleotide treatment. Cells were treated with oligonucleotides at a dose of 200 nM oligonucleotide and 6 ug/ml LIPOFECTIN for four hours. Cells were incubated overnight and harvested with 2 mM EDTA in PBS. Cells were washed in 2% bovine serum albumin, 0.2% sodium azide in D-PBS at 4° C. Cells were centrifuged at 200×g, and the supernatant was decanted. […] Antibodies were incubated with the cells for 30 minutes at 4° C. in the dark, under gentle agitation. Cells were washed again as above and then resuspended in 0.3 ml of FacsFlow buffer with 0.5% formaldehyde. Cells were analyzed on Becton Dickinson FACScan. Results are expressed as percentage of control expression based on mean fluorescence intensity.
Cells were harvested with trypsin at 48 and 72 hours after oligonucleotide treatment and stained with 2 ug/ml CD49d-FITC as in the previous example.
Where backbones are mixed, linkages are shown as "s" for phosphorothioate (P=S or PS) and "o" for phosphodiester (P=O or PO). Where target region is indicated as `M62841,` oligonucleotides are targeted to the promotor region whose sequence is described in GenBank Accession No. M62841. Remaining oligonucleotides are targeted to the sequence described in Genbank Accession No. L12002 and their target sites on the L12002 sequence are indicated.
Target sites refer to nucleotide numbers on the target sequence (GenBank Accession No. L12002) to which the oligonucleotides hybridize.
Oligonucleotides were synthesized as "gapmers" consisting of a 9-nucleotide region of deoxynucleotides flanked by three 2'-O-methoxyethyl(2'-MOE) nucleotides on the 5' end and eight 2'-MOE nucleotides on the 3' end. 2'-MOE nucleotides are shown in bold in the table. Oligonucleotides were synthesized with phosphorothioate backbones throughout, and all cytosines are 5-methylcytosines.

[1] = Table 24, A375 cells, lipofectin, as Example 8

In the case of “107258 (antisense TTAAAGTGATAATGGTCCAC; chemistry not given here) [compound 107258]”, the “% Control” value [1] was 39%.

For “24741 (AGACGTTATGGCTATTCTCT; phosphorothioate deoxy, further chemistry not given here) [compound 24741]”, the “% Control” value (Table 4, 10 nM) was 109%, the “% Control” value (Table 4, 30 nM) was 113% and the “% Control” value (Table 4, 100 nM) was 125%. For the same substance, the “% Control” value (Table 4, 300 nM) was 127%.

“107254 (antisense TGCTTTAGTGTTTCTCTACC; chemistry not given here) [compound 107254]” was tested, and the “% Control” value [1] was 33%.

With “107246 (antisense TAATCATCATTGCTTTTACT; chemistry not given here) [compound 107246]” the “% Control” value [1] was 42%.

With “24466 (TTGTCAATGTCGCCAAGA; chemistry not given here) [compound 24466]” the “% Control (integrin α4 protein)” value (A375 cells) was 64% and the “% Inhib (integrin α4 protein)” value (A375 cells) was 36%.

“24463 (TACACAAACACTCTTCCT; chemistry not given here) [compound 24463]” was tested, and the “% Control (integrin α4 protein)” value (A375 cells) was 101%.

For “26641 (GAGCTTATTTTCATTCTTTA; phosphorothioate, 2'-MOE/deoxy, further chemistry not given here) [compound 26641]”, the “inhibition (Example 11)” value was at least 40%, the “% Control” value (Table 6, 10 nM) was 88% and the “% Inhib.” value (Table 6, 10 nM) was 12%. For the same substance, the “% Control” value (Table 6, 30 nM) was 85%, the “% Inhib.” value (Table 6, 30 nM) was 15% and the “% Control” value (Table 6, 100 nM) was 67%. For the same substance, the “% Inhib.” value (Table 6, 100 nM) was 33%, the “% Control” value (Table 6, 300 nM) was 31% and the “% Inhib.” value (Table 6, 300 nM (highest dose)) was 69%.

For “24470 (TATCTGCATCAATTTGTC; chemistry not given here) [compound 24470]”, the “% Control (integrin α4 protein)” value (A375 cells) was 83% and the “% Inhib (integrin α4 protein)” value (A375 cells) was 17%.

“24462 (TGGTGCTCTGCATGGGTG; chemistry not given here) [compound 24462]” was tested, and the “% Control (integrin α4 protein)” value (A375 cells) was 65% and the “% Inhib (integrin α4 protein)” value (A375 cells) was 35%.

“107230 (antisense AGACTCGCGTCCTGGCCCGG; chemistry not given here) [compound 107230]” was tested, and the “% Control” value [1] was 73% and the “% Inhib.” value [1] was 27%.

With “24474 (ATCCATTTTCAACACAGT; chemistry not given here) [compound 24474]” the “% Control (integrin α4 protein)” value (A375 cells) was 71% and the “% Inhib (integrin α4 protein)” value (A375 cells) was 29%.

“24469 (GTCCAAACATACTTAACG; chemistry not given here) [compound 24469]” was tested, and the “% Control (integrin α4 protein)” value (A375 cells) was 68% and the “% Inhib (integrin α4 protein)” value (A375 cells) was 32%.

In the case of “24444 (GGAACATTCAACACTAAG; chemistry not given here) [compound 24444]”, the “% Control (integrin α4 protein)” value (A375 cells) was 68% and the “% Inhib (integrin α4 protein)” value (A375 cells) was 32%.

“24473 (TCAGGGTGGCTTAAAGAA; chemistry not given here) [compound 24473]” was tested, and the “inhibition (Example 11)” value was at least 40%, the “% Control (integrin α4 protein)” value (A375 cells) was 53% and the “% CONTROL 48 hr” value (50 nM) was 77%. For the same substance, the “% INHIB 48 hr” value (50 nM) was 23%, the “% CONTROL 72 hr” value (50 nM) was 85% and the “% INHIB 72 HR” value (50 nM) was 35%. For the same substance, the “% CONTROL 48 hr” value (100 nM) was 49%, the “% INHIB 48 hr” value (100 nM) was 51% and the “% CONTROL 72 hr” value (100 nM) was 77%. The “% INHIB 72 HR” value (100 nM) was 23%, the “% CONTROL 48 hr” value (200 nM) was 39% and the “% INHIB 48 hr” value (200 nM) was 61%. For the same substance, the “% CONTROL 72 hr” value (200 nM) was 61%, the “% INHIB 72 HR” value (200 nM) was 39% and the “% CONTROL 48 hr” value (400 nM) was 42%. The “% INHIB 48 hr” value (400 nM) was 58%, the “% CONTROL 72 hr” value (400 nM) was 56% and the “% INHIB 72 HR” value (400 nM) was 44%. The “% Control” value (Table 6, 10 nM) was 103%, the “% Control” value (Table 6, 30 nM) was 92% and the “% Control” value (Table 6, 100 nM) was 81%. The “% Inhib.” value (Table 6, 100 nM) was 19%, the “% Control” value (Table 6, 300 nM) was 47% and the “% Inhib.” value (Table 6, 300 nM (highest dose)) was 53%.

“107229 (antisense AGTCCGCAGAGCGCGGGATG; chemistry not given here) [compound 107229]” was tested, and the “% Control” value [1] was 104%.

For “24743 (GAAGGCCCCTGGGGAACATT; phosphorothioate, 2'-MOE, 5-methyl-C, further chemistry not given here) [compound 24743]”, the “% Control” value (Table 4, 10 nM) was 96%, the “% Control” value (Table 4, 30 nM) was 121% and the “% Control” value (Table 4, 100 nM) was 117%. For the same substance, the “% Control” value (Table 4, 300 nM) was 105%.

In the case of “24464 (TTTGTTTCCATTGCATTC; chemistry not given here) [compound 24464]”, the “% Control (integrin α4 protein)” value (A375 cells) was 62% and the “% Inhib (integrin α4 protein)” value (A375 cells) was 38%.

“24440 (CGGGTGCTCGCGCTGCTT; chemistry not given here) [compound 24440]” was tested, and the “% Control (integrin α4 protein)” value (A375 cells) was 101%.

“107237 (antisense CGCGCCTCGCTTCCCAAGCC; chemistry not given here) [compound 107237]” was tested, and the “% Control” value [1] was 46%.

“24742 (TTTAGTGACAAAGACGTTAT; phosphorothioate, 2'-MOE, 5-methyl-C, further chemistry not given here) [compound 24742]” was tested, and the “% Control” value (Table 4, 10 nM) was 112%, the “% Control” value (Table 4, 30 nM) was 107% and the “% Control” value (Table 4, 100 nM) was 123%. The “% Control” value (Table 4, 300 nM) was 128%.

“24447 (GTGGCTGTGCAGCACGAC; chemistry not given here) [compound 24447]” was tested, and the “% Control (integrin α4 protein)” value (A375 cells) was 76% and the “% Inhib (integrin α4 protein)” value (A375 cells) was 24%.

For “24476 (CAATTTGAAAGAAGTCCT; chemistry not given here) [compound 24476]”, the “% Control (integrin α4 protein)” value (A375 cells) was 99%.

In the case of “24445 (CCCGGGTTCGCGCCTCGC; chemistry not given here) [compound 24445]”, the “% Control (integrin α4 protein)” value (A375 cells) was 73% and the “% Inhib (integrin α4 protein)” value (A375 cells) was 27%.

For “107244 (antisense AGGATAGATTTGTATTGTCT; chemistry not given here) [compound 107244]”, the “% Control” value [1] was 37%.

For “24478 (GGCGGGCTGTTTTCCATT; chemistry not given here) [compound 24478]”, the “% Control (integrin α4 protein)” value (A375 cells) was 115%.

In the case of “26640 (CCACTGATTGTCTCTCTCTT; phosphorothioate, 2'-MOE/deoxy, further chemistry not given here) [compound 26640]”, the “inhibition (Example 11)” value was at least 40%, the “% Control” value (Table 6, 10 nM) was 91% and the “% Control” value (Table 6, 30 nM) was 83%. The “% Inhib.” value (Table 6, 30 nM) was 17%, the “% Control” value (Table 6, 100 nM) was 62% and the “% Inhib.” value (Table 6, 100 nM) was 38%. The “% Control” value (Table 6, 300 nM) was 35% and the “% Inhib.” value (Table 6, 300 nM (highest dose)) was 65%.

In the case of “107235 (antisense TCGCTTCCCAAGCCATGCGC; chemistry not given here) [compound 107235]”, the “% Control” value [1] was 36%.

“107239 (antisense ACTTCCTTGCCCTTATATGA; chemistry not given here) [compound 107239]” was tested, and the “% Control” value [1] was 29%.

For “24472 (CTTGTCCTTAGCAAGACA; chemistry not given here) [compound 24472]”, the “% Control (integrin α4 protein)” value (A375 cells) was 65% and the “% Inhib (integrin α4 protein)” value (A375 cells) was 35%.

“107240 (antisense AGAGTTATCTGTGACTTCAC; chemistry not given here) [compound 107240]” was tested, and the “% Control” value [1] was 40%.

For “107231 (antisense GTGCGGAGGCGCAGGGCCGG; chemistry not given here) [compound 107231]”, the “% Control” value [1] was 115%.

With “24471 (ACCGAAAAGCACCAACTG; chemistry not given here) [compound 24471]” the “% Control (integrin α4 protein)” value (A375 cells) was 80% and the “% Inhib (integrin α4 protein)” value (A375 cells) was 20%.

“107247 (antisense AAGAAGTCCTTAATCATCAT; chemistry not given here) [compound 107247]” was tested, and the “% Control” value [1] was 65% and the “% Inhib.” value [1] was 35%.

For “24465 (TGCAGCATATTTGTCACT; chemistry not given here) [compound 24465]”, the “% Control (integrin α4 protein)” value (A375 cells) was 63% and the “% Inhib (integrin α4 protein)” value (A375 cells) was 37%.

In the case of “107256 (antisense GAGGCAAGCACATATGGTAA; chemistry not given here) [compound 107256]”, the “% Control” value [1] was 45%.

With “107233 (antisense ATGCGACGGTTGGCCAACGG; chemistry not given here) [compound 107233]” the “% Control” value [1] was 57% and the “% Inhib.” value [1] was 43%.

For “24439 (CTCCGTCTCTGCCTACGC; chemistry not given here) [compound 24439]”, the “% Control (integrin α4 protein)” value (A375 cells) was 120%.

For “107260 (antisense TTTGCCAGTTTGGCCTATAA; chemistry not given here) [compound 107260]”, the “% Control” value [1] was 50%.

With “24449 (GCACGTCTGGCCGGGATT; chemistry not given here) [compound 24449]” the “% Control (integrin α4 protein)” value (A375 cells) was 61% and the “% Inhib (integrin α4 protein)” value (A375 cells) was 39%.
